# In patent publication US12357619B2, “Noradrenergic and specific serotonergic anxiolytic and antidepressant, method for the production and use thereof” (ALLA CHEM, LLC, priority 2020, dated 2025):
# How the values were obtained:
# [1] = target: T1, Adrenergic α2C (Homo sapiens, UniProt P18825); assay: Receptor activities, Ki (Table 1); assay type: binding
# T1 sequence (P18825 1-462): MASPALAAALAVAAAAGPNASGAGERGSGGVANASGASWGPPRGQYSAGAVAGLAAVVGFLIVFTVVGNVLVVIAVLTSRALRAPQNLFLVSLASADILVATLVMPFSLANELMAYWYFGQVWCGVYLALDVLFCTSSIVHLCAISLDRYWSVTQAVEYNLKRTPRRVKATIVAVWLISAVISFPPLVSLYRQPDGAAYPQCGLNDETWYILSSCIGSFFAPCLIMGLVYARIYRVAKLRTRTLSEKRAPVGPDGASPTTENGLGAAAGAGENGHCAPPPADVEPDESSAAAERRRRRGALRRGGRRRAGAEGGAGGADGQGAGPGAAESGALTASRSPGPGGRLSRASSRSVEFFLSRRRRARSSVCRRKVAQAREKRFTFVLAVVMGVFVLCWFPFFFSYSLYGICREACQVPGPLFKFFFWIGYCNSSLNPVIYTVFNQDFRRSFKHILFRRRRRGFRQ
# [2] = test system: people with generalized anxiety disorder (GAD); assay: Randomized double-blind placebo-controlled GAD study, adverse events; assay type: in vivo, human
# Method: Example 12. Efficacy and safety study of the oral drug of this invention made as a pharmaceutical composition of this invention in capsules. […] During the study, 3 scheduled visits were conducted in Week 2, Week 4, and Week 8 to assess the effectiveness and safety of the therapy as well as drug inventory and administration. During all of those visits, the patient's diary was checked, a drug inventory was made and the patients' compliance was assessed. In addition, adverse events, concomitant therapy, and vital signs were evaluated, urine drug screen was performed, and assessments using Hamilton Anxiety Rating Scale (HARS), Hamilton Depression Scale (HAMD), Clinical Global Impression-Severity (CGI-S), Clinical Global Impression-Improvement (CGI-I), and Visual Analog Scale (VAS) were made; women of child-bearing potential will take a urine pregnancy test. Also, during visits at Week 4 and Week 8 a physical examination was performed, body weight was measured, an ECG was performed in 12 leads and blood and urine samples were obtained for laboratory tests, namely: urinalysis and biochemical blood analysis, PK analysis before and 1 hour after taking the study drug (SD), and urinalysis. At Week 4, a blood sample was also obtained for genotyping by CYP2D6. At Week 8, treatment in the groups was completed, and all patients were prescribed a placebo to be taken during the follow-up period, which lasted 1 week. During this time, a possible development of SD withdrawal syndrome against the background of placebo was evaluated. During the visit at Week 9, the patient's diary was checked, a drug inventory was made and the patients' compliance was assessed. In addition, adverse events, concomitant therapy, and vital signs were evaluated, urine drug screen was performed, and assessments using the Hamilton Anxiety Rating Scale (HARS), Hamilton Depression Scale (HAMD), Clinical Global Impression-Severity (CGI-S), Clinical Global Impression-Improvement (CGI-I), and Visual Analog Scale (VAS) were made; women of child-bearing age will take a urine pregnancy test. At this point, the patients' participation in the study was completed, and they received recommendations for further treatment as part of standard GAD therapy.
smiles,measurement,setting,value
"Cc1ccc2c(c1)c1c(n2CCc2ccccc2)CCN(C)C1.Cl [A•HCl, 2,8-dimethyl-5-(2-phenylethyl)-2,3,4,5-tetrahydro-1H-pyrido[4,3-b]indole hydrochloride]",Ki,[1],3.55 nM
same,"Adverse effect Bitter taste in mouth, pain in the left hypochondrium, %","[2]; 40 mg/day, 42 patients",0.0%
same,"Adverse effect Bitter taste in mouth, pain in the left hypochondrium, N (number of people)","[2]; 40 mg/day, 42 patients",0
same,"Adverse effect Constipation, %","[2]; 40 mg/day, 42 patients",0.0%
same,"Adverse effect Constipation, N (number of people)","[2]; 40 mg/day, 42 patients",0
same,"Adverse effect Daytime drowsiness, %","[2]; 40 mg/day, 42 patients",2.4%
same,"Adverse effect Daytime drowsiness, N (number of people)","[2]; 40 mg/day, 42 patients",1
same,"Adverse effect Decreased appetite, %","[2]; 40 mg/day, 42 patients",2.4%
same,"Adverse effect Decreased appetite, N (number of people)","[2]; 40 mg/day, 42 patients",1
same,"Adverse effect Dizziness, %","[2]; 40 mg/day, 42 patients",0.0%
same,"Adverse effect Dizziness, N (number of people)","[2]; 40 mg/day, 42 patients",0
same,"Adverse effect Elevated creatinine kinase level, %","[2]; 40 mg/day, 42 patients",0.0%
same,"Adverse effect Elevated creatinine kinase level, N (number of people)","[2]; 40 mg/day, 42 patients",0
same,"Adverse effect Headache, %","[2]; 40 mg/day, 42 patients",4.8%
same,"Adverse effect Headache, N (number of people)","[2]; 40 mg/day, 42 patients",2
same,"Adverse effect Impaired concentration, %","[2]; 40 mg/day, 42 patients",0.0%
same,"Adverse effect Impaired concentration, N (number of people)","[2]; 40 mg/day, 42 patients",0
same,"Adverse effect Increased psychic tension, %","[2]; 40 mg/day, 42 patients",0.0%
same,"Adverse effect Increased psychic tension, N (number of people)","[2]; 40 mg/day, 42 patients",0
same,"Adverse effect Insomnia, %","[2]; 40 mg/day, 42 patients",2.4%
same,"Adverse effect Insomnia, N (number of people)","[2]; 40 mg/day, 42 patients",1
same,"Adverse effect Jaw reduction, %","[2]; 40 mg/day, 42 patients",0.0%
same,"Adverse effect Jaw reduction, N (number of people)","[2]; 40 mg/day, 42 patients",0
same,"Adverse effect Low hemoglobin level, %","[2]; 40 mg/day, 42 patients",2.4%
same,"Adverse effect Low hemoglobin level, N (number of people)","[2]; 40 mg/day, 42 patients",1
same,"Adverse effect Nausea, %","[2]; 40 mg/day, 42 patients",0.0%
same,"Adverse effect Nausea, N (number of people)","[2]; 40 mg/day, 42 patients",0
same,"Adverse effect Nocturnal awakening, %","[2]; 40 mg/day, 42 patients",0.0%
same,"Adverse effect Nocturnal awakening, N (number of people)","[2]; 40 mg/day, 42 patients",0
same,"Adverse effect Sleepiness, %","[2]; 40 mg/day, 42 patients",2.4%
same,"Adverse effect Sleepiness, N (number of people)","[2]; 40 mg/day, 42 patients",1
same,"Adverse effect Tension in the body (back, arms, legs), %","[2]; 40 mg/day, 42 patients",0.0%
same,"Adverse effect Tension in the body (back, arms, legs), N (number of people)","[2]; 40 mg/day, 42 patients",0
same,"Adverse effect Tingling in the hands, %","[2]; 40 mg/day, 42 patients",0.0%
same,"Adverse effect Tingling in the hands, N (number of people)","[2]; 40 mg/day, 42 patients",0
same,"Adverse effect Weakness, %","[2]; 40 mg/day, 42 patients",0.0%
same,"Adverse effect Weakness, N (number of people)","[2]; 40 mg/day, 42 patients",0
same,"Adverse effect Bitter taste in mouth, pain in the left hypochondrium, %","[2]; 60 mg/day, 44 patients",2.3%
same,"Adverse effect Bitter taste in mouth, pain in the left hypochondrium, N (number of people)","[2]; 60 mg/day, 44 patients",1
same,"Adverse effect Constipation, %","[2]; 60 mg/day, 44 patients",2.3%
same,"Adverse effect Constipation, N (number of people)","[2]; 60 mg/day, 44 patients",1
same,"Adverse effect Daytime drowsiness, %","[2]; 60 mg/day, 44 patients",0.0%
same,"Adverse effect Daytime drowsiness, N (number of people)","[2]; 60 mg/day, 44 patients",0
same,"Adverse effect Decreased appetite, %","[2]; 60 mg/day, 44 patients",0.0%
same,"Adverse effect Decreased appetite, N (number of people)","[2]; 60 mg/day, 44 patients",0
same,"Adverse effect Dizziness, %","[2]; 60 mg/day, 44 patients",9.1%
same,"Adverse effect Dizziness, N (number of people)","[2]; 60 mg/day, 44 patients",4
same,"Adverse effect Elevated creatinine kinase level, %","[2]; 60 mg/day, 44 patients",2.3%
same,"Adverse effect Elevated creatinine kinase level, N (number of people)","[2]; 60 mg/day, 44 patients",1
same,"Adverse effect Headache, %","[2]; 60 mg/day, 44 patients",13.6%
same,"Adverse effect Headache, N (number of people)","[2]; 60 mg/day, 44 patients",6
same,"Adverse effect Impaired concentration, %","[2]; 60 mg/day, 44 patients",2.3%
same,"Adverse effect Impaired concentration, N (number of people)","[2]; 60 mg/day, 44 patients",1
same,"Adverse effect Increased psychic tension, %","[2]; 60 mg/day, 44 patients",4.5%
same,"Adverse effect Increased psychic tension, N (number of people)","[2]; 60 mg/day, 44 patients",2
same,"Adverse effect Insomnia, %","[2]; 60 mg/day, 44 patients",0.0%
same,"Adverse effect Insomnia, N (number of people)","[2]; 60 mg/day, 44 patients",0
same,"Adverse effect Jaw reduction, %","[2]; 60 mg/day, 44 patients",2.3%
same,"Adverse effect Jaw reduction, N (number of people)","[2]; 60 mg/day, 44 patients",1
same,"Adverse effect Low hemoglobin level, %","[2]; 60 mg/day, 44 patients",0.0%
same,"Adverse effect Low hemoglobin level, N (number of people)","[2]; 60 mg/day, 44 patients",0
same,"Adverse effect Nausea, %","[2]; 60 mg/day, 44 patients",4.5%
same,"Adverse effect Nausea, N (number of people)","[2]; 60 mg/day, 44 patients",2
same,"Adverse effect Nocturnal awakening, %","[2]; 60 mg/day, 44 patients",2.3%
same,"Adverse effect Nocturnal awakening, N (number of people)","[2]; 60 mg/day, 44 patients",1
same,"Adverse effect Sleepiness, %","[2]; 60 mg/day, 44 patients",15.9%
same,"Adverse effect Sleepiness, N (number of people)","[2]; 60 mg/day, 44 patients",7
same,"Adverse effect Tension in the body (back, arms, legs), %","[2]; 60 mg/day, 44 patients",2.3%
same,"Adverse effect Tension in the body (back, arms, legs), N (number of people)","[2]; 60 mg/day, 44 patients",1
same,"Adverse effect Tingling in the hands, %","[2]; 60 mg/day, 44 patients",2.3%
same,"Adverse effect Tingling in the hands, N (number of people)","[2]; 60 mg/day, 44 patients",1
same,"Adverse effect Weakness, %","[2]; 60 mg/day, 44 patients",6.8%
same,"Adverse effect Weakness, N (number of people)","[2]; 60 mg/day, 44 patients",3
same,Safety profile and tolerability in patients,"[2]; GAD patients, 40 and 60 mg/day, 8 weeks",favorable safety profile and good tolerability
same,Side effects observed,"[2]; dose of 60 mg, GAD patients","headache, drowsiness, dizziness, weakness, nausea, increased anxiety"
